Experimental data: US20240261292A1, “COMBINATION THERAPIES” (Janssen Pharmaceutica NV, priority 2021, published 2024)

Experiments:
[1] = test system: OCI-AML3 cells; assay: In vitro proliferation (spheroid, Incucyte), menin-MLL inhibitor with DHODH inhibitor, OCI-AML3; assay type: cell-based, human; settings: 8 days
Text: Spheroid-like growth was monitored in real-time by non-invasive live-cell imaging using the 4× objective of the Incucyte ZOOM live cell imaging system (Essen BioScience), and acquiring images on Day 8. […] The DMSO content was normalized to 0.3% and the percent confluence from the DMSO well was used as baseline response. […] Data from 2 independent experiments from MOLM-13 or 3 independent experiments from OCI-AML3 cells were pooled and analyzed.

[2] = test system: MOLM-13 tumors; assay: Efficacy of menin-MLL inhibitor in combination with DHODH inhibitor in MOLM-13 (KMT2A-r) IV model; assay type: in vivo; settings: MOLM-13 IV, NSG mice
Text: 15) In Vivo Efficacy of Menin-MLL Inhibitor in Combination with DHODH Inhibitor in Disseminated Models of Human Acute Myeloid Leukemia (MOLM-13 and OCI-AML) 15A) Efficacy of Menin-MLL Inhibitor in Combination with DHODH Inhibitor in MOLM-13 (KMT2A-r) IV Model in NSG Mice
Day 0 is the day of tumor cell implantation and study initiation. In the MOLM-13 efficacy study, mice bearing IV MOLM-13 xenograft tumors were randomly assigned to treatment groups 5 days post-tumor cell engraftment.

[3] = test system: OCI-AML3 tumors; assay: Efficacy of menin-MLL inhibitor in combination with DHODH inhibitor in OCI-AML3 (NPM1c) IV model; assay type: in vivo; settings: NSG mice
Text: 15B) Efficacy of Menin-MLL Inhibitor in Combination with DHODH Inhibitor in OCI-AML3 (NPM1c) IV Model in NSG Mice In the OCI-AML3 efficacy study, mice bearing IV OCI-AML3 xenograft tumors were randomly assigned to treatment groups 5 days post-tumor cell engraftment.

[4] = test system: OCI-AML3 cells; assay: Proliferation assay (spheroid), OCI-AML3; assay type: cell-based, human; settings: 8 days
Protocol: The anti-proliferative effect of menin/MLL protein/protein interaction inhibitor test compounds was assessed inhuman leukemia cell lines. The cell line MOLM-14 harbors a MLL translocation and expresses the MLL fusion protein MLL-AF9, respectively, as well as the wildtype protein from the second allele. OCI-AML3 cells that carry the NPM1c gene mutation were also tested. […] KO-52 was used as a control cell line containing two MLL (KMT2A) wildtype alleles in order to exclude compounds that display general cytotoxic effects.
KO-52 and OCI-AML3 cell lines were propagated in alpha-MEM (Sigma Aldrich) supplemented with 20% heat-inactivated fetal bovine serum (HyClone), 2 mM L-glutamine (Sigma Aldrich) and 50 μg/ml gentamycin (Gibco).
In order to assess the anti-proliferative effects, 200 MOLM-14 cells, 200 OCI-AML3 cells or 300 KO-52 cells were seeded in 200 μl media per well in 96-well round bottom, ultra-low attachment plates (Costar, catalogue number 7007). Cell seeding numbers were chosen based on growth curves to ensure linear growth throughout the experiment. Test compounds were added at different concentrations and the DMSO content was normalized to 0.3%. Cells were incubated for 8 days at 37° C. and 5% CO2. Spheroid like growth was measured in real-time by live-cell imaging (IncuCyteZOOM, Essenbio, 4× objective) acquiring images at day 8. Confluence (%) as a measure of spheroid size was determined using an integrated analysis tool.
In order to determine the effect of the test compounds over time, the confluence in each well as a measure of spheroid size, was calculated. Confluence of the highest dose of a reference compound was used as baseline for the LC (Low control) and the confluence of DMSO treated cells was used as 0% cytotoxicity (High Control, HC).
HC=High Control: Mean confluence (%) (DMSO treated cells);
Dose-response equation was used for the plot of % Effect vs Log10 compound concentration with a variable slope and fixing the maximum to 100% and the minimum to 0%. 2b) MEIS1 mRNA Expression Assay

[5] = test system: iCell Cardiomyocytes2 (hSC-CMs); assay: Ca2+-fluorescence assay in human pluripotent stem cell-derived cardiomyocytes (CTCM human); assay type: cell-based; set-up: key to Hazard Scoring Color @ 0.1 μM / Hazard Scoring Color @ 0.2 μM / Hazard Scoring Color @ 0.5 μM / Hazard Scoring Color @ 1 μM / Hazard Scoring Color @ 2.5 μM / Hazard Scoring Color @ 5 μM / Hazard Scoring Color @ 0.3 μM / Hazard Scoring Color @ 3 μM / Hazard Scoring Color @ 10 μM / Hazard Scoring Color @ 30 μM: Green: No concern; Yellow: Low concern; Red: High concern; Black: Very high concern due to arrhythmic events
Protocol: 7) Cardio-Electrophysiological Effects of the Testing Compounds in Synchronously Beating Human Pluripotent Stem Cell-Derived Cardiomyocytes (hSC-CMs) Using a Ca^2+-Fluorescence Assay (CTCM Human)
Compounds were tested in the 96-well plates.
Compounds were tested at 0.1 μM, 0.2 μM, 0.5 μM, 1 μM, 2.5 μM and 5 μM (n=4 per dose) on Cor.4U®-Cardiomyocytes or on iCell® Cardionyocytes2.
Alternatively, compounds were tested at 0.1 μM, 0.3 μM; 1 μM, 3 μM, 10 μM and 30 μM (n=4 per dose) mostly on iCell® Cardiomyocytes2.
Vehicle control: Dimethylsulfoxide (DMSO). The solutions of the compound in DMSO or its solvent (final concentration of 0.1% DMSO; n=8).
Tested compounds were dissolved in DMSO at 1000-fold the intended concentrations. A compound “mother-plate” was made, containing the test compounds and positive and negative controls at 1000-fold the final concentrations. At the experiment day, these stock solutions were diluted with Tyrode (Sigma), supplemented with 10 mM HEPES (Gibco), to 2-fold the intended concentration (in round bottom compound plates). Final DMSO concentration in test solutions and vehicle control was 0.1%.
hSC-CMs (Cor.4U® Cardiomyocytes) were obtained from CDI (Ncardia, Germany). Cells are pre-plated and seeded in fibronectin-coated 96-well plates at a density suited to form a monolayer and maintained in culture in a stage incubator (37° C., 5% CO2), according to the instructions of the cell provider.
Second line hSC derived cardiomyocyte called iCell® Cardiomyocytes2 were purchased from FUJIFILM Cellular Dynamics (USA). The experiments with test drugs are carried out 5 to 7 days after plating the cells onto the plate to have a living, beating monolayer of hiPSC-derived cardiomyocytes. The beating monolayer in 96-well-plates are normally taken from 2 Vials of frozen iCell® Cardiomyocytes2 (≈5 million cells/vial), which will be plated onto three 96-well plates (≈50K/well).
At least one hour before the start of the experiments the normal cell medium was replaced with Tyrode solution with Calcium dye (see below).
Cal 520 dye (AAT Bioquest) was dissolved in 11 ml of Tyrode supplemented with 10 mM HEPES and warmed up to 37 C before adding to the cells.
35 μl cell culture medium was removed from each well and replaced with 35 μl of pre-warmed Cal 520 dye solution and cell plate was incubated for 45 min at 37° C./5% CO2. Cells were incubated for 5 min at 37° C.
Spontaneous electrical activity is recorded, using Cal520™ (AAT Bioquest) calcium fluorescence-dye signalling. This dye integrates the total intracellular calcium activity over the whole well. A bottle of Ca1520 dye (50 μg, MW: 1103/mol) is dissolved with 50 μl DMSO as a stock solution of 0.9 mM. 50 μL of the stock solution of the dye was added to 10 ml Tryodes solution to have dye concentration of 4.5 μM. Subsequently, 35 μl of this dye solution was added into each well, to have a final dye concentration of 1.58 μM. The current dye protocol on this CTCM human assay was established recently (Ivan Kopljar et al, Journal of Pharmacological and toxicological methods 2018. 91: 80-86; Lu et al., Tox Sci 2019. 170 (2): 345-356).
Fluorescent signals (Ca^2+ transient morphology) were measured using the Functional Drug Screen System (FDSS/μCell; Hamamatsu, Japan) and the recordings were subsequently analyzed off-line, using appropriate software e.g., Notocord.
The cell plate was loaded into the FDSS/μCell for a test run: Ca^2+ transients were measured for 4 minutes to check for synchronous beating of the cardiomyocytes in each well. All 96 wells were measured simultaneously (sampling interval: 0.06 s, short exposure time: 10 ms; excitation wavelength 480 nm; emission wavelength 540 nm; FDSS/μCell warmed to 37° C.).
During the compound addition step, 100 μl of the respective double-concentrated test solutions was pipetted into each well simultaneously.
Data were analyzed off-line using appropriate software e.g., Notocord-Hem (version 4.3). […]

[6] = Compound 22 0.0125 mg/kg (so in the source) PO daily 28 days
[7] = Compound 22 0.063 mg/kg PO daily 28 days
[8] = Compound 22 0.125 mg/kg PO daily 28 days
[9] = Compound 22 0.25 mg/kg PO daily 28 days
[10] = efficacious dose in mouse xenograft models of 30 mg/kg, (mouse, human), estimated

SMILES	Growth inhibition, monotherapy (in words) [1]	% ILS [2, 6]	Median Survival [2, 6]	% ILS [2, 7]	Median Survival [2, 7]	% ILS [3, 8]	Median Survival [3, 8]	% ILS [3, 9]	Median Survival [3, 9]	IC50 [4]	Hazard Scoring Color @ 0.1 μM ([5]; 0.1 μM, 30 min, iCell Cardiomyocytes2 (Table 12))	Hazard Scoring Color @ 0.3 μM ([5]; 0.3 μM, 30 min, iCell Cardiomyocytes2 (Table 12))	Hazard Scoring Color @ 1 μM ([5]; 1 μM, 30 min, iCell Cardiomyocytes2 (Table 12))	Hazard Scoring Color @ 3 μM ([5]; 3 μM, 30 min, iCell Cardiomyocytes2 (Table 12))	Hazard Scoring Color @ 10 μM ([5]; 10 μM, 30 min, iCell Cardiomyocytes2 (Table 12))	Hazard Scoring Color @ 30 μM ([5]; 30 μM, 30 min, iCell Cardiomyocytes2 (Table 12))	Margin CTCM human 10 μM vs free Cmax [5, 10]	Margin CTCM human 30 μM vs free Cmax [5, 10]
CCn1c(CO)nn(-c2cc3c(C(C)C)cn(-c4ccccc4C)c(=O)c3cc2F)c1=O [Compound 22, 6-(4-Ethyl-3-(hydroxymethyl)-5-oxo-4,5-dihydro-1H-1,2,4-triazol-1-yl)-7-fluoro-4-isopropyl-2-(o-tolyl)isoquinolin-1(2H)-one]	potent growth inhibition	*125%	40.5	*111%	38	*60%	41.5	*65%	43									
CCN(C(=O)c1cc(F)ccc1Oc1nncnc1N1CCC2(C1)CN([C@H](CCCN(C)CCOC)C(C)C)C2)C(C)C [Compound A1]										0.08 µM	Green	Green	Green	Green	Green	yellow	> 16	> 45
